Experimental findings from paper doi:10.1101/2020.10.13.334797v1 (biorxiv, 2020) are described below.

Each structure is given as a SMILES string.

What all share (type): cell-based
The target of experiment [1] is hTRPV4 (full-length; hTRPV4WT) (Homo sapiens, UniProt Q9HBA0, R594A). Put plainly: calcium flux.
The target in experiment [2] is hTRPV4 (full-length; hTRPV4WT) (Homo sapiens, UniProt Q9HBA0, F549A). The experiment is described as follows: calcium flux.
Experiment [3] addresses hTRPV4 (full-length; hTRPV4WT) (Homo sapiens, UniProt Q9HBA0, Q550A). Put plainly: calcium flux.
Experiment [4] concerns the target hTRPV4 (full-length; hTRPV4WT) (Homo sapiens, UniProt Q9HBA0, K535A). The experiment is described as follows: calcium flux.
For experiment [5], the target named is hTRPV4 (full-length; hTRPV4WT) (Homo sapiens, UniProt Q9HBA0, N474A). The experiment is described as follows: calcium flux.
hTRPV4 (full-length; hTRPV4WT) (Homo sapiens, UniProt Q9HBA0, N474A), sequence (Q9HBA0 whole entry N474A): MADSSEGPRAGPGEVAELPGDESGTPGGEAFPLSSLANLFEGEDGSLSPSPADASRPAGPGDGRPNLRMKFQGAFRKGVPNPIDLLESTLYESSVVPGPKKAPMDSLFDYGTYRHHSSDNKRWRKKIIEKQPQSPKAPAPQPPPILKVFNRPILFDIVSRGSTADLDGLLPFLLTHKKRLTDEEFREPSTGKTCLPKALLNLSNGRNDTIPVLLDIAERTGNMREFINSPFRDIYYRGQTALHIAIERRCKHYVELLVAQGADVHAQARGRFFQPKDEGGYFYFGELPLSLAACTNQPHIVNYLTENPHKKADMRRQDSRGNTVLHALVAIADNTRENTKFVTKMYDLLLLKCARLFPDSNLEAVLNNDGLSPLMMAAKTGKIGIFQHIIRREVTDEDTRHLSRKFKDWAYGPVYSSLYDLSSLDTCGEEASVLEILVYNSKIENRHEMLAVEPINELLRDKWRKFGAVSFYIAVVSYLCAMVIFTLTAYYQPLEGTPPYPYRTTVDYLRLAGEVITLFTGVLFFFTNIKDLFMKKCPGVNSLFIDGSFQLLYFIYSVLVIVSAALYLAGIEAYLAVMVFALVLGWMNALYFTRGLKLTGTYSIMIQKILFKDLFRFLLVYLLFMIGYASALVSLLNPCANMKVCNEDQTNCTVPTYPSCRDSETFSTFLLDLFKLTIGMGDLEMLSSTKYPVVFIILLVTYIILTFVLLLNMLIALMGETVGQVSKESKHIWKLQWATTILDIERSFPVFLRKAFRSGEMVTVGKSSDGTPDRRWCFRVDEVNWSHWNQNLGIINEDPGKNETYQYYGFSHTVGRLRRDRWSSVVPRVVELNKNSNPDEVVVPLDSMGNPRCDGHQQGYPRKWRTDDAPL
In experiment [6] the target is hTRPV4 (full-length; hTRPV4WT) (Homo sapiens, UniProt Q9HBA0, S548V). Put plainly: calcium flux.
hTRPV4 (full-length; hTRPV4WT) (Homo sapiens, UniProt Q9HBA0, S548V), sequence (Q9HBA0 whole entry S548V): as the sequence (Q9HBA0 whole entry N474A) above, with A474N, S548V counted along it
Experiment [7] concerns the target hTRPV4 (full-length; hTRPV4WT) (Homo sapiens, UniProt Q9HBA0, Y556A). The experiment is described as follows: calcium flux.
Experiment [8] deals with hTRPV4 (full-length; hTRPV4WT) (Homo sapiens, UniProt Q9HBA0). The experiment is described as follows: calcium flux.
hTRPV4 (full-length; hTRPV4WT) (Homo sapiens, UniProt Q9HBA0), sequence (Q9HBA0 whole entry, the tested form may be a part): as the sequence (Q9HBA0 whole entry N474A) above, with A474N counted along it
The target of experiment [9] is truncated hTRPV4 (cryo-EM construct, residues 148-787 N651D) (Homo sapiens, UniProt Q9HBA0, N651D). The experiment is described as follows: two-electrode voltage clamp, Xenopus oocytes.
truncated hTRPV4 (cryo-EM construct, residues 148-787 N651D), sequence (Q9HBA0 148-787 N651D): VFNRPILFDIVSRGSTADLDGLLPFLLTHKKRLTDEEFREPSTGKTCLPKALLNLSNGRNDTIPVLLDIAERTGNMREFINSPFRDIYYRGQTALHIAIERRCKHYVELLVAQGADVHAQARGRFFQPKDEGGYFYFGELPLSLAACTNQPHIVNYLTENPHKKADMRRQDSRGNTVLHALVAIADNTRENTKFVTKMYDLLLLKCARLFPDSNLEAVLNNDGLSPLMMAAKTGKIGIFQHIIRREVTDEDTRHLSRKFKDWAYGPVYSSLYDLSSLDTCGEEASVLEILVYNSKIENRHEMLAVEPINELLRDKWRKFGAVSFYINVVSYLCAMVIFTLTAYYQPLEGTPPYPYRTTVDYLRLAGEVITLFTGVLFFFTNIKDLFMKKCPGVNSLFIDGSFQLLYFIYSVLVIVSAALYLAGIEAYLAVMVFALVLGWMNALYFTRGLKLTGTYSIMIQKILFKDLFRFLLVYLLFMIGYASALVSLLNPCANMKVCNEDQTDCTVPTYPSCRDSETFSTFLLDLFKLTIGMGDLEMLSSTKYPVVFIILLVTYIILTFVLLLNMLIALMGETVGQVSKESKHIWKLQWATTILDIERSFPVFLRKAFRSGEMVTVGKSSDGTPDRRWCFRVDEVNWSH
For experiment [10], the target named is hTRPV4 (full-length; hTRPV4WT) (Homo sapiens, UniProt Q9HBA0, L584M). The experiment is described as follows: calcium flux.
hTRPV4 (full-length; hTRPV4WT) (Homo sapiens, UniProt Q9HBA0, L584M), sequence (Q9HBA0 whole entry L584M): as the sequence (Q9HBA0 whole entry N474A) above, with A474N, L584M counted along it
Experiment [11] concerns the target hTRPV4 (full-length; hTRPV4WT) (Homo sapiens, UniProt Q9HBA0, N474Q). The experiment is described as follows: calcium flux.

hTRPV4 (full-length; hTRPV4WT) (Homo sapiens, UniProt Q9HBA0, Y556A), sequence (Q9HBA0 whole entry Y556A): as the sequence (Q9HBA0 whole entry N474A) above, with A474N, Y556A counted along it
hTRPV4 (full-length; hTRPV4WT) (Homo sapiens, UniProt Q9HBA0, K535A), sequence (Q9HBA0 whole entry K535A): as the sequence (Q9HBA0 whole entry N474A) above, with A474N, K535A counted along it
hTRPV4 (full-length; hTRPV4WT) (Homo sapiens, UniProt Q9HBA0, F549A), sequence (Q9HBA0 whole entry F549A): as the sequence (Q9HBA0 whole entry N474A) above, with A474N, F549A counted along it
hTRPV4 (full-length; hTRPV4WT) (Homo sapiens, UniProt Q9HBA0, R594A), sequence (Q9HBA0 whole entry R594A): as the sequence (Q9HBA0 whole entry N474A) above, with A474N, R594A counted along it
hTRPV4 (full-length; hTRPV4WT) (Homo sapiens, UniProt Q9HBA0, Q550A), sequence (Q9HBA0 whole entry Q550A): as the sequence (Q9HBA0 whole entry N474A) above, with A474N, Q550A counted along it
hTRPV4 (full-length; hTRPV4WT) (Homo sapiens, UniProt Q9HBA0, N474Q), sequence (Q9HBA0 whole entry N474Q): as the sequence (Q9HBA0 whole entry N474A) above, with A474Q counted along it

For the compound `CC(C)C[C@H](NC(=O)c1cc2ccccc2s1)C(=O)N1CCN(C(=O)[C@H](CO)NS(=O)(=O)c2ccc(Cl)cc2Cl)CC1` [GSK1016790A], the EC50 was above 25000 nM in experiment [1]; 9.8 ± 4.1 nM in [2]; 27 ± 13 nM in experiment [3]; 7.4 ± 2.9 nM in [4]; 540 ± 150 nM in experiment [5]; 110 ± 18 nM in [6]. In addition, the concentration giving a half-maximal response (EC50) in experiment [7] was 9.6 ± 4.3 nM; in experiment [8], 1.21 ± 0.033 nM; in experiment [9], 8430 nM; in experiment [10], 4 ± 1.7 nM; in experiment [11], above 25000 nM.
